# Results as given in patent US20210045385A1, “PYRIDAZINONE-SUBSTITUTED KETOXIMES AS HERBICIDES” (FMC Corporation, priority 2018, published 2021).
# Key:
# Format in all cases: in vivo
# [1] = tested on: Italian ryegrass (Lolium multiflorum); test: Test A preemergence, visual plant response rating; conditions: for Ryegrass, Italian plant response rating: 125 g ai/ha, preemergence, 0 to 100 scale, 0 no effect, 100 complete control; for Ryegrass, Italian plant response rating (0 to 100 scale): 500 g ai/ha Preemergence, approx. 10 days
# Method in brief: (§1)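 Ratings use a 0–100 visual scale (100 = complete control) against untreated controls, scored about 10 days after greenhouse treatment. Test chemicals were formulated in surfactant-containing non-phytotoxic solvent and applied either as soil spray after planting (preemergence) or onto one- to two-leaf, 2–10 cm plants (postemergence).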
# [2] = tested on: barnyardgrass (Echinochloa crus-galli); test: Test A preemergence, visual plant response rating; conditions: for Barnyardgrass plant response rating: 125 g ai/ha, preemergence, 0 to 100 scale, 0 no effect, 100 complete control; for Barnyardgrass plant response rating (0 to 100 scale): 500 g ai/ha Preemergence, approx. 10 days
# Method in brief: as §1
# [3] = tested on: foxtail, giant (giant foxtail, Setaria faberii); test: Test A preemergence, visual plant response rating; conditions: for Foxtail, Giant plant response rating: 125 g ai/ha, preemergence, 0 to 100 scale, 0 no effect, 100 complete control; for Foxtail, Giant plant response rating (0 to 100 scale): 500 g ai/ha Preemergence, approx. 10 days
# Method in brief: as §1
# kochia (Kochia scoparia) [4] = test: Test A preemergence, visual plant response rating; conditions: for Kochia plant response rating: 125 g ai/ha, preemergence, 0 to 100 scale, 0 no effect, 100 complete control; for Kochia plant response rating (0 to 100 scale): 500 g ai/ha Preemergence, approx. 10 days
# Method in brief: as §1
# [5] = tested on: pigweed (Amaranthus retroflexus); test: Test A preemergence, visual plant response rating; conditions: for Pigweed plant response rating: 125 g ai/ha, preemergence, 0 to 100 scale, 0 no effect, 100 complete control; for Pigweed plant response rating (0 to 100 scale): 500 g ai/ha Preemergence, approx. 10 days
# Method in brief: as §1
# [6] = tested on: ragweed (common ragweed, Ambrosia elatior); test: Test A preemergence, visual plant response rating; conditions: for Ragweed plant response rating: 125 g ai/ha, preemergence, 0 to 100 scale, 0 no effect, 100 complete control; for Ragweed plant response rating (0 to 100 scale): 500 g ai/ha Preemergence, approx. 10 days
# Method in brief: as §1
# [7] = tested on: Italian ryegrass (Lolium multiflorum); test: Test A postemergence, visual plant response rating; conditions: for Ryegrass, Italian plant response rating (0 to 100 scale): 500 g ai/ha, postemergence, 0 is no effect, 100 is complete control; for Ryegrass, Italian plant response rating: Postemergence, 125 g ai/ha, 0 to 100 scale (0 no effect, 100 complete control)
# Method in brief: as §1
# [8] = tested on: barnyardgrass (Echinochloa crus-galli); test: Test A postemergence, visual plant response rating; conditions: for Barnyardgrass plant response rating (0 to 100 scale): 500 g ai/ha, postemergence, 0 is no effect, 100 is complete control; for Barnyardgrass plant response rating: Postemergence, 125 g ai/ha, 0 to 100 scale (0 no effect, 100 complete control)
# Method in brief: as §1
# [9] = tested on: blackgrass (Alopecurus myosuroides); test: Test A postemergence, visual plant response rating; conditions: for Blackgrass plant response rating (0 to 100 scale): 500 g ai/ha, postemergence, 0 is no effect, 100 is complete control; for Blackgrass plant response rating: Postemergence, 125 g ai/ha, 0 to 100 scale (0 no effect, 100 complete control)
# Method in brief: as §1
# corn (Zea mays) = test: Test A postemergence, visual plant response rating; conditions: for Corn plant response rating (0 to 100 scale): 500 g ai/ha, postemergence, 0 is no effect, 100 is complete control; for Corn plant response rating: Postemergence, 125 g ai/ha, 0 to 100 scale (0 no effect, 100 complete control)
# Method in brief: as §1
# [10] = tested on: foxtail, giant (giant foxtail, Setaria faberii); test: Test A postemergence, visual plant response rating; conditions: for Foxtail, Giant plant response rating (0 to 100 scale): 500 g ai/ha, postemergence, 0 is no effect, 100 is complete control; for Foxtail, Giant plant response rating: Postemergence, 125 g ai/ha, 0 to 100 scale (0 no effect, 100 complete control)
# Method in brief: as §1
# [11] = tested on: galium (catchweed bedstraw, Galium aparine); test: Test A postemergence, visual plant response rating; conditions: for Galium plant response rating (0 to 100 scale): 500 g ai/ha, postemergence, 0 is no effect, 100 is complete control; for Galium plant response rating: Postemergence, 125 g ai/ha, 0 to 100 scale (0 no effect, 100 complete control)
# Method in brief: as §1
# kochia (Kochia scoparia) [12] = test: Test A postemergence, visual plant response rating; conditions: for Kochia plant response rating (0 to 100 scale): 500 g ai/ha, postemergence, 0 is no effect, 100 is complete control; for Kochia plant response rating: Postemergence, 125 g ai/ha, 0 to 100 scale (0 no effect, 100 complete control)
# Method in brief: as §1
# [13] = tested on: pigweed (Amaranthus retroflexus); test: Test A postemergence, visual plant response rating; conditions: for Pigweed plant response rating (0 to 100 scale): 500 g ai/ha, postemergence, 0 is no effect, 100 is complete control; for Pigweed plant response rating: Postemergence, 125 g ai/ha, 0 to 100 scale (0 no effect, 100 complete control)
# Method in brief: as §1
# [14] = tested on: ragweed (common ragweed, Ambrosia elatior); test: Test A postemergence, visual plant response rating; conditions: for Ragweed plant response rating (0 to 100 scale): 500 g ai/ha, postemergence, 0 is no effect, 100 is complete control; for Ragweed plant response rating: Postemergence, 125 g ai/ha, 0 to 100 scale (0 no effect, 100 complete control)
# Method in brief: as §1
# [15] = tested on: wheat (Triticum aestivum); test: Test A postemergence, visual plant response rating; conditions: for Wheat plant response rating (0 to 100 scale): 500 g ai/ha, postemergence, 0 is no effect, 100 is complete control; for Wheat plant response rating: Postemergence, 125 g ai/ha, 0 to 100 scale (0 no effect, 100 complete control)
# Method in brief: as §1
# [16] = tested on: barnyardgrass (Echinochloa crus-galli); test: Test B flooded paddy test, visual plant response rating; conditions: 250 g ai/ha, Flood, applied to paddy water, 2-leaf stage, evaluated after 13 to 15 days
# Method in brief: (§2)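 At the two-leaf stage, seedlings received compound applied to paddy water flooded 3 cm above soil, a level sustained until assessment. Greenhouse incubation lasted 13 to 15 days before visual comparison with control plants.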
# [17] = tested on: ducksalad (Heteranhera limosa); test: as above; conditions: 250 g ai/ha, Flood, applied to paddy water, 2-leaf stage, evaluated after 13 to 15 days
# Method in brief: as §2
# rice (Oryza sativa) = test: as above; conditions: 250 g ai/ha, Flood, applied to paddy water, 2-leaf stage, evaluated after 13 to 15 days
# Method in brief: as §2
# [18] = tested on: sedge, umbrella (small-flower umbrella sedge, Cyperus difformis); test: as above; conditions: 250 g ai/ha, Flood, applied to paddy water, 2-leaf stage, evaluated after 13 to 15 days
# Method in brief: as §2
SMILES,"Ryegrass, Italian plant response rating [1]","Ryegrass, Italian plant response rating (0 to 100 scale) [1]",Barnyardgrass plant response rating [2],Barnyardgrass plant response rating (0 to 100 scale) [2],"Foxtail, Giant plant response rating [3]","Foxtail, Giant plant response rating (0 to 100 scale) [3]",Kochia plant response rating (kochia (Kochia scoparia) [4]),Kochia plant response rating (0 to 100 scale) (kochia (Kochia scoparia) [4]),Pigweed plant response rating [5],Pigweed plant response rating (0 to 100 scale) [5],Ragweed plant response rating [6],Ragweed plant response rating (0 to 100 scale) [6],"Ryegrass, Italian plant response rating (0 to 100 scale) [7]","Ryegrass, Italian plant response rating [7]",Barnyardgrass plant response rating (0 to 100 scale) [8],Barnyardgrass plant response rating [8],Blackgrass plant response rating (0 to 100 scale) [9],Blackgrass plant response rating [9],Corn plant response rating (0 to 100 scale) (corn (Zea mays)),Corn plant response rating (corn (Zea mays)),also measured
CO/N=C(/c1ccccc1F)c1c(O)c(C)nn(C)c1=O [Compound 34],10,60,0,0,0,40,0,0,0,10,20,50,60,20,20,0,10,0,0,0,"Foxtail, Giant plant response rating (0 to 100 scale) [10]: 10; Foxtail, Giant plant response rating [10]: 0; Galium plant response rating (0 to 100 scale) [11]: 70; Galium plant response rating [11]: 40; Kochia plant response rating (0 to 100 scale) (kochia (Kochia scoparia) [12]): 20; Kochia plant response rating (kochia (Kochia scoparia) [12]): 10; Pigweed plant response rating (0 to 100 scale) [13]: 20; Pigweed plant response rating [13]: 20; Ragweed plant response rating (0 to 100 scale) [14]: 50; Ragweed plant response rating [14]: 40; Wheat plant response rating (0 to 100 scale) [15]: 20; Wheat plant response rating [15]: 20; Plant response rating, Barnyardgrass (0 to 100 scale, 0 is no effect, 100 is complete control) [16]: 0; Plant response rating, Ducksalad (0 to 100 scale, 0 is no effect, 100 is complete control) [17]: 0; Plant response rating, Rice (0 to 100 scale, 0 is no effect, 100 is complete control) (rice (Oryza sativa)): 0; Plant response rating, Sedge, Umbrella (0 to 100 scale, 0 is no effect, 100 is complete control) [18]: 0"
Cc1ccc(Cl)cc1/C(=N\O)c1c(O)c(C)nn(C)c1=O [Compound 35],0,10,0,0,0,0,0,0,0,0,0,10,20,0,0,0,20,0,0,0,"Foxtail, Giant plant response rating (0 to 100 scale) [10]: 0; Foxtail, Giant plant response rating [10]: 0; Galium plant response rating (0 to 100 scale) [11]: 70; Galium plant response rating [11]: 20; Kochia plant response rating (0 to 100 scale) (kochia (Kochia scoparia) [12]): 10; Kochia plant response rating (kochia (Kochia scoparia) [12]): 0; Pigweed plant response rating (0 to 100 scale) [13]: 20; Pigweed plant response rating [13]: 10; Ragweed plant response rating (0 to 100 scale) [14]: 20; Ragweed plant response rating [14]: 10; Wheat plant response rating (0 to 100 scale) [15]: 0; Wheat plant response rating [15]: 0; Plant response rating, Barnyardgrass (0 to 100 scale, 0 is no effect, 100 is complete control) [16]: 0; Plant response rating, Ducksalad (0 to 100 scale, 0 is no effect, 100 is complete control) [17]: 0; Plant response rating, Rice (0 to 100 scale, 0 is no effect, 100 is complete control) (rice (Oryza sativa)): 0; Plant response rating, Sedge, Umbrella (0 to 100 scale, 0 is no effect, 100 is complete control) [18]: 0"
